Values after ≈ are worked out from the molar mass of the structure shown.
How the values were obtained:
MraYSA (S. aureus MraY) = MraYSA (S. aureus MraY) (Staphylococcus aureus, UniProt Q2FZ93); assay: fluorescence assay of dansylated lipid I formation; type: biochemical
in vitro = assay: in vitro; set-up: WST-8 cell viability assay in HepG2 cells; settings: human, hepg2 cells; read-out: IC50
Protocol: Cells were regularly passed to maintain exponential growth. HepG2 cells were sowed by 1.0 × 10^4 cells for each well in 96-well plate and cultured at 37 °C under 5% CO2 in air for 24 h. The cells were treated with a solution of test compounds in DMSO at various concentration and incubated at 37 °C under 5% CO2 in air for 24 h. After that, the WST-8 (Dojindo) cell proliferation assay was used. Cell viability was indicated as a percentage of the negative control (cells treated with DMSO only) and that value was fixed at 100%.

Enterococcus faecalis 26 = test system: T1, Enterococcus faecalis 26; assay: microbe, parasite or virus in culture; set-up: CLSI broth microdilution MIC in MHB-II; settings: Enterococcus faecalis, 26, 18 h, read-out: MIC
T1 construct: 26
Protocol: (§1) MICs were determined by a microdilution broth method as recommended by the CLSI with MHB-II. For MICs of stable analogues, a 2-fold dilution of each compound was prepared in DMSO at 100-fold of the final concentration. The strains were inoculated with 5 × 10^5 cfu/mL in 96-well plates (each 100 μL/well), and 1 μL of DMSO solutions of the samples were added (contained less than 1% DMSO). The plates were incubated at 37 °C for 18 h and then MICs were determined. MICs of stable analogues in Table 1 were the highest value in three trials. MICs in Supplementary Table 1 were determined in one trial.

Enterococcus faecalis 28 = test system: T2, Enterococcus faecalis 28; assay: microbe, parasite or virus in culture; set-up: CLSI broth microdilution MIC in MHB-II; settings: Enterococcus faecalis, 28, 18 h, read-out: MIC
T2 construct: 28
Protocol: as §1

Enterococcus faecalis 30 = test system: T3, Enterococcus faecalis 30; assay: microbe, parasite or virus in culture; set-up: CLSI broth microdilution MIC in MHB-II; settings: Enterococcus faecalis, 30, 18 h, read-out: MIC
T3 construct: 30
Protocol: as §1

Enterococcus faecium 11 = test system: T4, Enterococcus faecium 11; assay: microbe, parasite or virus in culture; set-up: CLSI broth microdilution MIC in MHB-II; settings: Enterococcus faecium, 11, 18 h, read-out: MIC
T4 construct: 11
Protocol: as §1

Enterococcus faecium 3 = assay: microbe, parasite or virus in culture; set-up: CLSI broth microdilution MIC in MHB-II; settings: Enterococcus faecium, 3, 18 h, read-out: MIC
Protocol: as §1

Enterococcus faecium 4 = assay: microbe, parasite or virus in culture; set-up: CLSI broth microdilution MIC in MHB-II; settings: Enterococcus faecium, 4, 18 h, read-out: MIC
Protocol: as §1

Enterococcus faecium 7 = assay: microbe, parasite or virus in culture; set-up: CLSI broth microdilution MIC in MHB-II; settings: Enterococcus faecium, 7, 18 h, read-out: MIC
Protocol: as §1

Enterococcus faecium 8 = assay: microbe, parasite or virus in culture; set-up: CLSI broth microdilution MIC in MHB-II; settings: Enterococcus faecium, 8, 18 h, read-out: MIC
Protocol: as §1

[1] = test system: T5, Staphylococcus aureus #2071; assay: microbe, parasite or virus in culture; set-up: CLSI broth microdilution MIC in MHB-II; settings: Staphylococcus aureus, 18 h, read-out: MIC
T5 construct: #2071
Protocol: as §1

[2] = test system: T6, Staphylococcus aureus #2110; assay: microbe, parasite or virus in culture; set-up: CLSI broth microdilution MIC in MHB-II; settings: Staphylococcus aureus, 18 h, read-out: MIC
T6 construct: #2110
Protocol: as §1

[3] = test system: T7, Staphylococcus aureus #2334; assay: microbe, parasite or virus in culture; set-up: CLSI broth microdilution MIC in MHB-II; settings: Staphylococcus aureus, 18 h, read-out: MIC
T7 construct: #2334
Protocol: as §1

A. baumannii ATCC 19606 = test system: T8, A. baumannii ATCC 19606; assay: microbe, parasite or virus in culture; settings: Acinetobacter baumannii, ATCC19606
T8 construct: ATCC 19606
Protocol: (§2) MICs were determined by a microdilution broth method as recommended by the CLSI with MHB-II. For MICs of stable analogues, a 2-fold dilution of each compound was prepared in DMSO at 100-fold of the final concentration. The strains were inoculated with 5 × 10^5 cfu/mL in 96-well plates (each 100 μL/well), and 1 μL of DMSO solutions of the samples were added (contained less than 1% DMSO). The plates were incubated at 37 °C for 18 h and then MICs were determined. MICs of stable analogues in Table 1 were the highest value in three trials. MICs in Supplementary Table 1 were determined in one trial.  Fig. 2 Results of biological evaluations of hydrazone library. a General structures of hydrazine fragment moiety are shown. Each hydrazine class are represented by different colours (green; BZ, cyan; PA, grey; AC, yellow; AA, orange; LA). b–h MraY inhibitory activity and antibacterial activity of the hydrazone library. The bar graphs show the relative enzyme activity with DMSO as 100% when the compound is treated at given concentration (b,c; TUN at 100 nM, d,e; MRY at 10 nM, f.g; MRD at 100 nM, h; CAP at 1000 nM. n = 1), with the lower bars indicating higher inhibitory activity. The colour of the bars corresponds to Fig. 2a. […] Data of control compounds (van: vancomycin, col: colistin) are shown left column in each panel. E. faecium ATCC 35667, S. aureus ATCC 29213, P. aeruginosa ATCC 27853, K. pneumoniae ATCC 13883, E. cloacae ATCC 13047, A. baumannii ATCC 19606, E. coli ATCC 25922.

E. cloacae ATCC 13047 = test system: T9, E. cloacae ATCC 13047; assay: microbe, parasite or virus in culture; settings: Enterobacter cloacae, ATCC13047
T9 construct: ATCC 13047
Protocol: as §2

E. faecium ATCC 35667 = test system: T10, E. faecium ATCC 35667; assay: microbe, parasite or virus in culture; settings: Enterococcus faecium, ATCC35667
T10 construct: ATCC 35667
Protocol: as §2

P. aeruginosa ATCC 27853 = test system: T11, P. aeruginosa ATCC 27853; assay: microbe, parasite or virus in culture; settings: Pseudomonas aeruginosa, ATCC27853
T11 construct: ATCC 27853
Protocol: as §2

S. aureus ATCC 29213 = test system: T12, S. aureus ATCC 29213; assay: microbe, parasite or virus in culture; settings: Staphylococcus aureus, ATCC29213
T12 construct: ATCC 29213
Protocol: as §2

Sequence of MraYSA (S. aureus MraY) (Q2FZ93 whole entry): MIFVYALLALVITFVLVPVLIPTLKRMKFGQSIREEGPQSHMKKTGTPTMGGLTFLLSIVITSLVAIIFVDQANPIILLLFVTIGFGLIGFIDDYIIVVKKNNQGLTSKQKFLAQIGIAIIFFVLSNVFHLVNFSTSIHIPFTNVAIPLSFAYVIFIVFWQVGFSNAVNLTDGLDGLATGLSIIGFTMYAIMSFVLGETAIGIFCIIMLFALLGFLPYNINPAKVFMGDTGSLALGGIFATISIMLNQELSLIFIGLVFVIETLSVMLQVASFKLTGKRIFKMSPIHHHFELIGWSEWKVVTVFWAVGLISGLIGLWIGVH

SMILES	IC50 (MraYSA (S. aureus MraY)) [µM]	CC50 at 24 h (in vitro) [µM]	MIC (Enterococcus faecalis 26) [µg/mL]	MIC (Enterococcus faecalis 28) [µg/mL]	MIC (Enterococcus faecalis 30) [µg/mL]	MIC (Enterococcus faecium 11) [µg/mL]	MIC (Enterococcus faecium 3) [µg/mL]	MIC (Enterococcus faecium 4) [µg/mL]	MIC (Enterococcus faecium 7) [µg/mL]	MIC (Enterococcus faecium 8) [µg/mL]	MIC [1] [µg/mL]	MIC [2] [µg/mL]	MIC [3] [µg/mL]	MIC (A. baumannii ATCC 19606) [µM]	MIC (E. cloacae ATCC 13047) [µM]	MIC (E. faecium ATCC 35667) [µM]	MIC (P. aeruginosa ATCC 27853) [µM]	MIC (S. aureus ATCC 29213) [µM]
CCCCCCCCCCCCCCCC(=O)N[C@@H](CCCCN)C(=O)Nc1cccc(CN[C@H](C(=O)O)[C@H](O[C@@H]2O[C@H](CN)[C@@H](O)[C@H]2O)[C@H]2O[C@@H](n3ccc(=O)[nH]c3=O)[C@H](O)[C@@H]2O)c1 [compound 6, analogue 6]	0.0037	16	0.25 (≈ 0.272 µM)	0.13 (≈ 0.141 µM)	0.5 (≈ 0.543 µM)	1 (≈ 1.09 µM)	1 (≈ 1.09 µM)	0.5 (≈ 0.543 µM)	2 (≈ 2.17 µM)	0.5 (≈ 0.543 µM)	64 (≈ 69.6 µM)	2 (≈ 2.17 µM)	1 (≈ 1.09 µM)					
CCCCCCCCCCCCCCCC(=O)N[C@@H](CCCNC(=N)N)C(=O)Nc1ccc(CN[C@H](C(=O)O)[C@H](O[C@@H]2O[C@H](CN)[C@@H](O)[C@H]2O)[C@H]2O[C@@H](n3ccc(=O)[nH]c3=O)[C@H](O)[C@@H]2O)cc1 [compound 7, analogue 7]	0.0017	25	0.13 (≈ 0.137 µM)	< 0.06	0.25 (≈ 0.264 µM)	2 (≈ 2.11 µM)	1 (≈ 1.05 µM)	0.5 (≈ 0.527 µM)	0.5 (≈ 0.527 µM)	0.5 (≈ 0.527 µM)	1 (≈ 1.05 µM)	2 (≈ 2.11 µM)	2 (≈ 2.11 µM)					
CCCCCCCCCCCCCCCC(=O)N[C@@H](CCCNC(=N)N)C(=O)Nc1cccc(CN[C@H](C(=O)O)[C@H](O[C@@H]2O[C@H](CN)[C@@H](O)[C@H]2O)[C@H]2O[C@@H](n3ccc(=O)[nH]c3=O)[C@H](O)[C@@H]2O)c1 [compound 8, analogue 8]	0.0018	23	0.25 (≈ 0.264 µM)	< 0.06	0.5 (≈ 0.527 µM)	2 (≈ 2.11 µM)	2 (≈ 2.11 µM)	1 (≈ 1.05 µM)	1 (≈ 1.05 µM)	1 (≈ 1.05 µM)	64 (≈ 67.5 µM)	2 (≈ 2.11 µM)						
C[C@H]1COc2c(N3CCN(C)CC3)c(F)cc3c(=O)c(C(=O)O)cn1c23 [levofloxacin]			0.5 (≈ 1.38 µM)	1 (≈ 2.77 µM)	1 (≈ 2.77 µM)	> 32	> 32	> 32	0.5 (≈ 1.38 µM)	> 32	0.13 (≈ 0.36 µM)	> 32	> 32					
CN[C@H](CC(C)C)C(=O)N[C@H]1C(=O)N[C@@H](CC(N)=O)C(=O)N[C@H]2C(=O)N[C@H]3C(=O)N[C@H](C(=O)N[C@H](C(=O)O)c4cc(O)cc(O)c4-c4cc3ccc4O)[C@H](O)c3ccc(c(Cl)c3)Oc3cc2cc(c3O[C@@H]2O[C@H](CO)[C@@H](O)[C@H](O)[C@H]2O[C@H]2C[C@](C)(N)[C@H](O)[C@H](C)O2)Oc2ccc(cc2Cl)[C@H]1O [vancomycin]			1 (≈ 0.69 µM)	1 (≈ 0.69 µM)	1 (≈ 0.69 µM)	1 (≈ 0.69 µM)	1 (≈ 0.69 µM)	1 (≈ 0.69 µM)	0.5 (≈ 0.345 µM)	1 (≈ 0.69 µM)		2 (≈ 1.38 µM)	2 (≈ 1.38 µM)	50 (≈ 72.5 µg/mL)	> 50	< 0.5	> 50	< 0.5

Source: article PMC11178787, “Development of a natural product optimization strategy for inhibitors against MraY, a promising antibacterial target” (Nature Communications, 2024)
